In patent US20120172369A1 (priority 2009, published 2012):

Target: T1, human DGAT1 enzyme (Homo sapiens, UniProt O75907)
T1 construct: made in house; host or cells: Sf9 insect cells (microsomal membranes)
T1 sequence (O75907 1-488): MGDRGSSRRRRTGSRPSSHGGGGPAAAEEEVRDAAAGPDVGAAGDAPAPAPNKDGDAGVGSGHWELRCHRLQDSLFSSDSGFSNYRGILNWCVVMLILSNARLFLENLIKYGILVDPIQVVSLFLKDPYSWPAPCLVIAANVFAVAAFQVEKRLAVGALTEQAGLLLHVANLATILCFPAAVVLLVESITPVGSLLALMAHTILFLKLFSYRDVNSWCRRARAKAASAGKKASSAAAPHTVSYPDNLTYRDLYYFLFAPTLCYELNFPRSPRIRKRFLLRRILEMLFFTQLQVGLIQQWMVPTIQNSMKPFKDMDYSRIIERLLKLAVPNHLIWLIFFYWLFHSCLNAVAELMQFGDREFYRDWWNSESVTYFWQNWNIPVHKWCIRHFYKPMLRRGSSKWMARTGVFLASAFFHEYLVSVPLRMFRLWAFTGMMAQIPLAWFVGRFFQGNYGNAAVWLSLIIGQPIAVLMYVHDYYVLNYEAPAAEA
Assay: in vitro DGAT1 inhibition assay (microsomes, [14C]-palmitoyl-CoA, SPA beads)
Format: biochemical
Settings: human DGAT1 expressed in Sf9 insect cells, microsomes; 2 hours at room temperature; read-out: IC50
Protocol: The in vitro assay to identify DGAT1 inhibitors uses human DGAT1 enzyme expressed in Sf9 insect cells prepared as microsomes. The reaction was initiated by the addition of the combined substrates 1,2-dioleoyl-sn-glycerol and [^14C]-palmitoyl-Co A and incubated with test compounds and microsomal membranes for 2 hours at room temperature. The assay was stopped by adding 0.5 mg wheat germ agglutinin beads in assay buffer with 1% Brij-35 and 1% 3-cholamidopropyldimethyl-ammonio-1-propane sulfonate. Plates were sealed with TopSeal and incubated for 18 hours to allow the radioactive triglyceride product to come into proximity with the bead. Plates were read on a TopCount instrument.
Percent inhibition was calculated as the percent of (test compound inhibition minus non-specific binding) relative to (total binding minus non-specific binding). IC50 values were determined by curve fitting the data to a Sigmoidal dose-response in GraphPad Prism utilizing the following equation:
Y=A+(B−A)/(1+10̂((Log IC50−X))),
where A and B are the bottom and top of the curve (highest and lowest inhibition), respectively, and X is the logarithm of concentration.

- IC50: 38 nM
Structure (SMILES): COC(=O)c1cccc(COC2CCN(c3ccc(NC(=O)c4oc5ccc(-c6ccc(F)cc6)cc5c4C)cn3)CC2)c1 [Example 35, methyl 3-((1-(5-(5-(4-fluorophenyl)-3-methylbenzofuran-2-carboxamido)pyridin-2-yl)piperidin-4-yloxy)methyl)benzoate]
